DBAASP
Converted amounts (≈) assume the structure as drawn.

Columns and labels:
Test in all cases: ≥ marks a high value that may be exact or a test limit, other limits are often not marked, values filed in µg/mL are converted to µM
[1] = system: Corynebacterium xerosis C875
Escherichia coli DC2 = system: Escherichia coli DC2
Escherichia coli UB1005 = system: Escherichia coli UB1005
[2] = system: Staphylococcus epidermidis C621
[3] = system: Bacillus subtilis ATCC 6633
[4] = system: Candida albicans ATCC 20032
[5] = system: Escherichia coli ATCC 25922
[6] = system: Staphylococcus aureus ATCC 25923
Acinetobacter baumannii = system: Acinetobacter baumannii
[7] = system: Candida albicans ATCC 90028
[8] = system: Escherichia coli ATCC 25726
[9] = system: Klebsiella pneumoniae ATCC 700603
[10] = system: Proteus mirabilis ATCC 25933
[11] = system: Pseudomonas aeruginosa ATCC 27853
[12] = system: Staphylococcus aureus ATCC 29213
[13] = system: Staphylococcus epidermidis RP62A/1
[14] = system: Staphylococcus epidermidis RP62A
[15] = system: Stenotrophomonas maltophilia
[16] = system: Bacillus subtilis IFO 3513
[17] = system: Escherichia coli IFO 12734
[18] = system: Staphylococcus aureus IFO 12732
[19] = system: Micrococcus luteus ATCC 9341
Escherichia coli JM109 = system: Escherichia coli JM109
[20] = system: Staphylococcus aureus ATCC 6538P
Staphylococcus aureus = system: Staphylococcus aureus

SMILES: C[C@H](NC(=O)[C@H](C)NC(=O)[C@H](C)NC(=O)[C@H](Cc1ccc(O)cc1)NC(=O)[C@H](C)NC(=O)[C@H](C)NC(=O)[C@H](C)NC(=O)[C@H](CCCCN)NC(=O)[C@@H](N)CCCCN)C(=O)N[C@@H](C)C(=O)N[C@@H](C)C(=O)N[C@@H](Cc1ccc(O)cc1)C(=O)N[C@@H](C)C(=O)N[C@@H](C)C(=O)N[C@@H](Cc1c[nH]c2ccccc12)C(=O)N[C@@H](C)C(=O)N[C@@H](C)C(=O)N[C@@H](Cc1ccc(O)cc1)C(=O)N[C@@H](C)C(=O)N[C@@H](C)C(=O)N[C@@H](C)C(=O)N[C@@H](CCCCN)C(=O)N[C@@H](CCCCN)C(=O)N[C@@H](CCCCN)C(=O)N[C@@H](CCCCN)C(N)=O [KKAAAYAAAAAYAAWAAYAAAKKKK]
- MIC [1]: 0.25 µM (≈ 0.632 µg/mL)
- MIC (Escherichia coli DC2): 16 µM (≈ 40.4 µg/mL)
- MIC (Escherichia coli UB1005): ≥ 32 µM
- MIC [2]: 8 µM (≈ 20.2 µg/mL)

SMILES: CC[C@H](C)[C@H](NC(=O)[C@H](CCCCN)NC(=O)[C@H](C)NC(=O)CNC(=O)[C@@H](NC(=O)[C@@H](N)CO)[C@@H](C)CC)C(=O)N[C@@H](CC(C)C)C(=O)NCC(=O)NCC(=O)N[C@H](C(=O)N[C@@H](CCCCN)C(=O)N[C@H](C(=O)N[C@@H](Cc1ccccc1)C(=O)N[C@@H](Cc1ccccc1)C(=O)N[C@@H](CCCCN)C(=O)NCC(=O)N[C@@H](C)C(=O)N[C@@H](CC(C)C)C(=O)N[C@@H](CCCCN)C(=O)N[C@@H](CCC(=O)O)C(=O)N[C@@H](CC(C)C)C(=O)N[C@@H](C)C(=O)N[C@@H](Cc1ccccc1)C(=O)N[C@H](C(=O)N[C@@H](Cc1ccc(O)cc1)C(=O)N[C@@H](CC(C)C)C(=O)N[C@@H](CCC(N)=O)C(N)=O)[C@@H](C)O)[C@@H](C)O)C(C)C [SIGAKILGGVKTFFKGALKELAFTYLQ]
- MIC [3]: ≥ 34.5 µM
- MIC [4]: ≥ 34.5 µM
- MIC [5]: > 34.5 µM
- MIC [6]: 12.9 µM (≈ 37.5 µg/mL)

SMILES: CC[C@H](C)[C@H](NC(=O)CN)C(=O)NCC(=O)NCC(=O)N[C@H](C(=O)N[C@@H](CC(C)C)C(=O)N[C@@H](CC(C)C)C(=O)N[C@@H](CO)C(=O)N[C@@H](C)C(=O)NCC(=O)N[C@@H](CCCCN)C(=O)N[C@@H](C)C(=O)N[C@@H](C)C(=O)N[C@@H](CC(C)C)C(=O)N[C@@H](CCCCN)C(=O)NCC(=O)N[C@@H](CC(C)C)C(=O)N[C@H](C(=O)N[C@@H](CCCCN)C(=O)N[C@H](C(=O)N[C@@H](CC(C)C)C(=O)N[C@@H](C)C(=O)N[C@@H](CCC(=O)O)C(=O)N[C@@H](CCCCN)C(=O)N[C@@H](Cc1ccc(O)cc1)C(=O)N[C@@H](C)C(=O)N[C@@H](CC(N)=O)C(N)=O)C(C)C)[C@@H](C)O)C(C)C [GIGGVLLSAGKAALKGLTKVLAEKYAN]
- MIC [3]: ≥ 37.8 µM
- MIC [4]: ≥ 37.8 µM
- MIC [5]: > 37.8 µM
- MIC [6]: 7.11 µM (≈ 18.8 µg/mL)

SMILES: CC[C@H](C)[C@H](N)C(=O)N[C@@H](CCCCN)C(=O)N[C@@H](CC(C)C)C(=O)N[C@@H](CO)C(=O)N[C@@H](CCCCN)C(=O)N[C@@H](CCC(=O)O)C(=O)N[C@H](C(=O)N[C@@H](CCCCN)C(=O)N[C@@H](CCCCN)C(=O)N[C@@H](CC(N)=O)C(=O)N[C@@H](CC(C)C)C(=O)N[C@@H](CCCCN)C(=O)N[C@@H](CCCCN)C(=O)N[C@H](C(=O)N[C@@H](CC(C)C)C(=O)N[C@@H](CCCCN)C(=O)NCC(=O)N[C@@H](C)C(=O)N[C@H](C(=O)N[C@@H](CCCCN)C(=O)NCC(=O)N[C@@H](C)C(=O)N[C@H](C(=O)N[C@@H](C)C(=O)N[C@H](C(=O)N[C@@H](C)C(=O)N[C@@H](CCCCN)C(=O)N[C@@H](CCSC)C(=O)N[C@H](C(N)=O)C(C)C)C(C)C)[C@@H](C)CC)[C@@H](C)CC)C(C)C)[C@@H](C)O [IKLSKETKKNLKKVLKGAIKGAIAVAKMV]
- MIC (Acinetobacter baumannii): 3.1 µM (≈ 9.63 µg/mL)
- MIC [7]: ≥ 50 µM
- MIC [8]: 6.25 µM (≈ 19.4 µg/mL)
- MIC [9]: 6.25 µM (≈ 19.4 µg/mL)
- MIC [10]: ≥ 100 µM
- MIC [11]: 12.5 µM (≈ 38.8 µg/mL)
- MIC [6]: 3.1 µM (≈ 9.63 µg/mL)
- MIC [12]: 6.25 µM (≈ 19.4 µg/mL)
- MIC [13]: 1.6 µM (≈ 4.97 µg/mL)
- MIC [14]: 1.6 µM (≈ 4.97 µg/mL)
- MIC [15]: 3.1 µM (≈ 9.63 µg/mL)

SMILES: CC[C@H](C)[C@H](N)C(=O)N[C@@H](CC(C)C)C(=O)N1CCC[C@H]1C(=O)N[C@@H](Cc1c[nH]c2ccccc12)C(=O)N[C@@H](CCCCN)C(=O)N[C@@H](Cc1c[nH]c2ccccc12)C(=O)N1CCC[C@H]1C(=O)N[C@@H](Cc1c[nH]c2ccccc12)C(=O)N[C@@H](CC(C)C)C(=O)N1CCC[C@H]1C(=O)N[C@@H](Cc1ccc(O)cc1)C(=O)N[C@@H](CCCN=C(N)N)C(=O)N[C@@H](CCCN=C(N)N)C(N)=O [ILPWKWPWLPYRR]
- MIC [16]: 1.73 µM (≈ 3.13 µg/mL)
- MIC [17]: 27.6 µM (≈ 50 µg/mL)
- MIC [18]: 3.45 µM (≈ 6.25 µg/mL)

SMILES: CC[C@H](C)[C@H](N)C(=O)N[C@@H](CCCCN)C(=O)N[C@@H](CC(C)C)C(=O)N[C@@H](CO)C(=O)N[C@@H](CCCCN)C(=O)N[C@@H](CCC(=O)O)C(=O)N[C@H](C(=O)N[C@@H](CCCCN)C(=O)N[C@@H](CC(=O)O)C(=O)N[C@@H](CC(N)=O)C(=O)N[C@@H](CC(C)C)C(=O)N[C@@H](CCCCN)C(=O)N[C@@H](CCCCN)C(=O)N[C@H](C(=O)N[C@@H](CC(C)C)C(=O)N[C@@H](CCCCN)C(=O)NCC(=O)N[C@@H](C)C(=O)N[C@H](C(=O)N[C@@H](CCCCN)C(=O)NCC(=O)N[C@@H](C)C(=O)N[C@H](C(=O)N[C@@H](C)C(=O)N[C@H](C(=O)N[C@@H](C)C(=O)N[C@@H](CCCCN)C(=O)N[C@@H](CCSC)C(=O)N[C@H](C(N)=O)C(C)C)C(C)C)[C@@H](C)CC)[C@@H](C)CC)C(C)C)[C@@H](C)O [IKLSKETKDNLKKVLKGAIKGAIAVAKMV]
- MIC (Acinetobacter baumannii): 6.25 µM (≈ 19.3 µg/mL)
- MIC [7]: ≥ 50 µM
- MIC [8]: 12.5 µM (≈ 38.7 µg/mL)
- MIC [9]: 12.5 µM (≈ 38.7 µg/mL)
- MIC [10]: ≥ 100 µM
- MIC [11]: 25 µM (≈ 77.4 µg/mL)
- MIC [6]: 6.25 µM (≈ 19.3 µg/mL)
- MIC [12]: 6.25 µM (≈ 19.3 µg/mL)
- MIC [13]: 1.6 µM (≈ 4.95 µg/mL)
- MIC [14]: 1.6 µM (≈ 4.95 µg/mL)
- MIC [15]: 3.1 µM (≈ 9.59 µg/mL)

SMILES: CC[C@H](C)[C@@H]1NC(=O)[C@H](CO)NC(=O)[C@H](CCCCN)NC(=O)[C@H]([C@@H](C)O)NC(=O)[C@H](Cc2c[nH]c3ccccc23)NC(=O)[C@@H](NC(=O)CNC(=O)[C@H](CCCN=C(N)N)NC(=O)[C@H](CC(C)C)NC(=O)[C@H](C)NC(=O)[C@H](C)N)CSSC[C@@H](C(=O)N2CCC[C@H]2C(=O)NCC(=O)N[C@@H](CCCCN)C(=O)N[C@@H](CCCN=C(N)N)C(=O)O)NC(=O)[C@@H]2CCCN2C(=O)[C@H](CCCCN)NC(=O)[C@@H]2CCCN2C(=O)[C@@H]2CCCN2C1=O [AALRGCWTKSIPPKPCPGKR]
- MIC [3]: ≥ 46.2 µM
- MIC [4]: ≥ 46.2 µM
- MIC [5]: 46.2 µM (≈ 100 µg/mL)
- MIC [6]: 5.8 µM (≈ 12.6 µg/mL)

SMILES: CC[C@H](C)[C@H](NC(=O)[C@H](CC(C)C)NC(=O)[C@@H]1CCCN1C(=O)[C@H](Cc1c[nH]c2ccccc12)NC(=O)[C@H](CCCCN)NC(=O)[C@H](Cc1c[nH]c2ccccc12)NC(=O)[C@@H]1CCCN1C(=O)[C@H](Cc1c[nH]c2ccccc12)NC(=O)[C@H](Cc1c[nH]c2ccccc12)NC(=O)[C@@H]1CCCN1C(=O)[C@H](Cc1c[nH]c2ccccc12)NC(=O)[C@H](CCCN=C(N)N)NC(=O)[C@@H](N)CCCN=C(N)N)C(N)=O [RRWPWWPWKWPLI]
- MIC [16]: 0.818 µM (≈ 1.56 µg/mL)
- MIC [17]: 6.55 µM (≈ 12.5 µg/mL)
- MIC [19]: 0.4 µM (≈ 0.763 µg/mL)
- MIC [18]: 0.818 µM (≈ 1.56 µg/mL)

SMILES: CC[C@H](C)[C@H](N)C(=O)N[C@@H](CC(C)C)C(=O)N1CCC[C@H]1C(=O)N[C@@H](CC(C)C)C(=O)N[C@@H](CCCCN)C(=O)N[C@@H](Cc1c[nH]c2ccccc12)C(=O)N1CCC[C@H]1C(=O)N[C@@H](Cc1c[nH]c2ccccc12)C(=O)N[C@@H](Cc1c[nH]c2ccccc12)C(=O)N1CCC[C@H]1C(=O)N[C@@H](Cc1c[nH]c2ccccc12)C(=O)N[C@@H](CCCN=C(N)N)C(=O)N[C@@H](CCCN=C(N)N)C(N)=O [ILPLKWPWWPWRR]
- MIC [16]: 1.71 µM (≈ 3.13 µg/mL)
- MIC [17]: 13.6 µM (≈ 25 µg/mL)
- MIC [18]: 1.71 µM (≈ 3.13 µg/mL)

SMILES: CC[C@H](C)[C@H](NC(=O)[C@H](C)NC(=O)[C@H](CC(C)C)NC(=O)[C@H](CS)NC(=O)[C@H](CC(C)C)NC(=O)[C@H](C)NC(=O)[C@H](C)NC(=O)[C@H](CS)NC(=O)[C@@H](N)CC(C)C)C(=O)NCC(=O)N[C@@H](CCCN=C(N)N)C(=O)N[C@@H](CCCN=C(N)N)C(N)=O [LCAALCLAIGRR]
- MIC (Escherichia coli JM109): 19.1 µM (≈ 24 µg/mL)
- MIC [20]: 4.76 µM (≈ 6 µg/mL)
- MIC (Staphylococcus aureus): 38.1 µM (≈ 48 µg/mL)
